From ChEMBL document CHEMBL3124812, “Benzamidobenzoic acids as potent PqsD inhibitors for the treatment of Pseudomonas aeruginosa infections” (Eur J Med Chem, 2014)
Activity calls are given as the source filed them. No cut-off for these calls is given here.

Experiments:
Pseudomonas aeruginosa [1] = assay: Inhibition of Pseudomonas aeruginosa His-6-tagged PqsD expressed in Escherichia coli BL21 (lambdaDE3) using anthraniloyl-CoA/beta-ketodecanoic acid at 50 uM as substrate by LC-MS/MS analysis
Escherichia coli [2] = assay: Inhibition of Escherichia coli RNAP assessed as incorporation of [5,6-3H]UTP at 50 uM preincubated for 10 mins followed by DNA template and ATP, CTP, GTP, UTP, [5,6-3H]UTP addition measured after 10 mins by scintillation counting analysis
[3] = Inhibition of Pseudomonas aeruginosa His-6-tagged PqsD expressed in Escherichia coli BL21 (lambdaDE3) using anthraniloyl-CoA/beta-ketodecanoic acid as substrate by LC-MS/MS analysis
[4] = Inhibition of Escherichia coli RNAP assessed as incorporation of [5,6-3H]UTP preincubated for 10 mins followed by DNA template and ATP, CTP, GTP, UTP, [5,6-3H]UTP addition measured after 10 mins by scintillation counting analysis
Escherichia coli [5] = assay: Inhibition of Escherichia coli RNAP assessed as incorporation of [5,6-3H]UTP at 100 uM preincubated for 10 mins followed by DNA template and ATP, CTP, GTP, UTP, [5,6-3H]UTP addition measured after 10 mins by scintillation counting analysis
Escherichia coli [6] = assay: Inhibition of Escherichia coli RNAP assessed as incorporation of [5,6-3H]UTP at 200 uM preincubated for 10 mins followed by DNA template and ATP, CTP, GTP, UTP, [5,6-3H]UTP addition measured after 10 mins by scintillation counting analysis
Pseudomonas aeruginosa [7] = assay: Inhibition of Pseudomonas aeruginosa His-6-tagged PqsD expressed in Escherichia coli BL21 (lambdaDE3) using anthraniloyl-CoA/beta-ketodecanoic acid at 25 uM as substrate by LC-MS/MS analysis
[8] = Selectivity index, ratio of IC50 for Escherichia coli RNAP to IC50 for Pseudomonas aeruginosa PqsD
Pseudomonas aeruginosa [9] = assay: Inhibition of Pseudomonas aeruginosa His-6-tagged PqsD expressed in Escherichia coli BL21 (lambdaDE3) using anthraniloyl-CoA/beta-ketodecanoic acid at 10 uM as substrate by LC-MS/MS analysis

Cc1ccc(NC(=O)c2ccc(-c3ccccc3)cc2)c(C(=O)O)c1 showed an inhibition (Pseudomonas aeruginosa [1]) of 42%.
In the case of CCN(CC)S(=O)(=O)c1cccc(C(=O)Nc2ccc(C(F)(F)F)cc2C(=O)O)c1, the inhibition (Escherichia coli [2]) is reported as “inactive”.
In the case of N#Cc1cc(Br)ccc1NC(=O)c1ccc(-c2ccccc2)cc1, the IC50 [3] is reported as “Not Active” and the IC50 [4] is reported as “Not Active”.
For O=C(Nc1cccc(F)c1C(=O)O)c1ccc(-c2ccccc2)cc1, the inhibition (Pseudomonas aeruginosa [1]) was 21%.
For CCN(CC)S(=O)(=O)c1cccc(C(=O)Nc2ccc(-c3ccc(C(=O)O)cc3)cc2C(=O)O)c1, the inhibition (Escherichia coli [2]) was 23%.
CCN(CC)S(=O)(=O)c1cccc(C(=O)Nc2ccc(-c3ccc(C(N)=O)cc3)cc2C(=O)O)c1 gave an IC50 ([4]; read-out: IC50) of 78 µM.
With CCN(CC)S(=O)(=O)c1cccc(C(=O)Nc2ccc(-c3ccccc3)cc2C(=O)O)c1 the inhibition (Escherichia coli [5]) was “inactive”.
Compound O=C(Nc1ccsc1C(=O)O)c1ccc(-c2ccccc2)cc1 has an IC50 ([3]; read-out: IC50) of 5.2 µM and an inhibition (Escherichia coli [6]) of 28%.
For O=C(O)c1ccc(Br)c(NC(=O)c2ccc(-c3ccccc3)cc2)c1, the IC50 [3] was “Not Active” and the inhibition (Escherichia coli [6]) was 25%.
For NC(=O)c1cc(Br)ccc1NC(=O)c1ccc(-c2ccccc2)cc1, the IC50 [3] was “Not Active” and the IC50 [4] was “Not Active”.
In the case of COC(=O)c1cc(Br)ccc1NC(=O)c1ccc(-c2ccccc2)cc1, the IC50 [3] is reported as “Not Active” and the IC50 [4] is reported as “Not Active”.
For O=C(O)c1cc(Br)cc(NC(=O)c2ccc(-c3ccccc3)cc2)c1, the IC50 ([3]; read-out: IC50) was 32.6 µM and the IC50 ([4]; read-out: IC50) was 110 µM.
For COc1ccc(C(=O)O)c(NC(=O)c2ccc(-c3ccccc3)cc2)c1, the inhibition (Pseudomonas aeruginosa [7]) was 43%.
With O=C(O)c1cc(Br)ccc1NS(=O)(=O)c1ccc(-c2ccccc2)cc1 the IC50 ([3]; read-out: IC50) was 1.3 µM and the IC50 ([4]; read-out: IC50) was 35 µM.
For COc1ccc(-c2cc(NC(=O)c3ccc(-c4ccccc4)cc3)c(C(=O)O)s2)cc1, the inhibition (Pseudomonas aeruginosa [1]) was 45% and the IC50 ([4]; read-out: IC50) was 9 µM.
In the case of O=C(Nc1sc(-c2ccccc2)cc1C(=O)O)c1ccc(-c2ccccc2)cc1, the inhibition (Pseudomonas aeruginosa [1]) is reported as 28% and the inhibition (Escherichia coli [2]) is reported as 33%.
O=C(Nc1cccc(Cl)c1C(=O)O)c1ccc(-c2ccccc2)cc1 gave an inhibition (Pseudomonas aeruginosa [1]) of 20%.
Compound O=C(Nc1cc(-c2ccc(Cl)cc2)sc1C(=O)O)c1ccc(-c2ccccc2)cc1 has an inhibition (Pseudomonas aeruginosa [1]) of 35% and an IC50 ([4]; read-out: IC50) of 13 µM.
For COc1ccc(NC(=O)c2ccc(-c3ccccc3)cc2)c(C(=O)O)c1, the inhibition (Pseudomonas aeruginosa [1]) was 46%.
For COc1cc(NC(=O)c2cccc(Oc3ccccc3)c2)c(C(=O)O)cc1OC, the inhibition (Pseudomonas aeruginosa [1]) was 27%.
For O=C(Nc1cc(-c2ccccc2)sc1C(=O)O)c1ccc(-c2ccccc2)cc1, the IC50 ([3]; read-out: IC50) was 9.8 µM and the IC50 ([4]; read-out: IC50) was 10 µM.
With CCN(CC)S(=O)(=O)c1cccc(C(=O)Nc2cc(Cl)ccc2C(=O)O)c1 the inhibition (Escherichia coli [5]) was “inactive”.
With CCN(CC)S(=O)(=O)c1cccc(C(=O)Nc2ccc(Br)cc2C(=O)O)c1 the inhibition (Escherichia coli [2]) was “inactive”.
In the case of CCN(CC)S(=O)(=O)c1cccc(C(=O)Nc2ccc(C#N)cc2C(=O)O)c1, the inhibition (Escherichia coli [6]) is reported as “inactive”.
In the case of CCN(CC)S(=O)(=O)c1cc(C(=O)Nc2ccccc2C(=O)O)ccc1Br, the inhibition (Escherichia coli [6]) is reported as “inactive”.
Compound CCN(CC)S(=O)(=O)c1cccc(C(=O)Nc2ccc(-c3cccc(C(N)=O)c3)cc2C(=O)O)c1 has an inhibition (Escherichia coli [6]) of 45%.
Work on CCN(CC)S(=O)(=O)c1cccc(C(=O)Nc2ccc(-c3cccc(C(=O)O)c3)cc2C(=O)O)c1 yielded an inhibition (Escherichia coli [6]) of 24%.
Work on O=C(Nc1ccccc1C(=O)O)c1ccc(-c2ccccc2)cc1 yielded an inhibition (Pseudomonas aeruginosa [1]) of 55%.
For CCN(CC)S(=O)(=O)c1cccc(C(=O)Nc2ccc(F)cc2C(=O)O)c1, the inhibition (Escherichia coli [5]) was “inactive”.
O=C(Nc1ccccc1C(=O)O)c1cccc(Oc2ccccc2)c1 showed an inhibition (Pseudomonas aeruginosa [1]) of 37%.
For O=C(Nc1sccc1C(=O)O)c1ccc(-c2ccccc2)cc1, the IC50 ([3]; read-out: IC50) was 15.7 µM and the IC50 ([4]; read-out: IC50) was 161 µM.
O=C(Nc1cscc1C(=O)O)c1ccc(-c2ccccc2)cc1 gave an IC50 ([3]; read-out: IC50) of 19.5 µM and an inhibition (Escherichia coli [6]) of 33%.
For O=C(O)c1cccc(NC(=O)c2ccc(-c3ccccc3)cc2)c1, the inhibition (Pseudomonas aeruginosa [7]) was 25% and the inhibition (Escherichia coli [5]) was 31%.
In the case of O=C(Nc1ccccc1C(=O)O)c1cccc(S(=O)(=O)N2CCOCC2)c1, the inhibition (Escherichia coli [6]) is reported as “inactive”.
With O=C(Nc1ccc(F)cc1C(=O)O)c1cccc(Oc2ccccc2)c1 the inhibition (Pseudomonas aeruginosa [1]) was 57%.
For CCN(CC)S(=O)(=O)c1cccc(C(=O)Nc2cccc(Cl)c2C(=O)O)c1, the inhibition (Escherichia coli [6]) was “inactive”.
With COc1cc(NC(=O)c2ccc(-c3ccccc3)cc2)c(C(=O)O)cc1OC the inhibition (Pseudomonas aeruginosa [1]) was 27%.
Work on O=C(Nc1cccc(O)c1C(=O)O)c1ccc(-c2ccccc2)cc1 yielded an IC50 ([3]; read-out: IC50) of 1.3 µM, a Ratio IC50 [8] of 50 and an IC50 ([4]; read-out: IC50) of 74 µM.
With CCN(CC)S(=O)(=O)c1ccc(C(=O)Nc2ccc(Br)cc2C(=O)O)cc1 the inhibition (Escherichia coli [6]) was 28%.
Work on CCN(CC)S(=O)(=O)c1cccc(C(=O)Nc2ccc([N+](=O)[O-])cc2C(=O)O)c1 yielded an inhibition (Escherichia coli [5]) of 30%.
With O=C(Nc1ccccc1C(=O)O)c1cccc(S(=O)(=O)N2CCCC2)c1 the inhibition (Escherichia coli [6]) was “inactive”.
In the case of CCN(CC)S(=O)(=O)c1cc(C(=O)Nc2ccc(F)cc2C(=O)O)ccc1Br, the inhibition (Escherichia coli [5]) is reported as “inactive”.
In the case of CCN(CC)S(=O)(=O)c1cccc(C(=O)Nc2cccc(O)c2C(=O)O)c1, the inhibition (Escherichia coli [6]) is reported as “inactive”.
With O=C(O)c1ccc(NC(=O)c2ccc(-c3ccccc3)cc2)cc1 the inhibition (Pseudomonas aeruginosa [9]) was “inactive” and the inhibition (Escherichia coli [5]) was 15%.
For CCN(CC)S(=O)(=O)c1cc(C(=O)Nc2ccc(Br)cc2C(=O)O)ccc1Br, the inhibition (Escherichia coli [2]) was “inactive”.
